Measurements as given in paper PMC12463534, “Exploring the Anticancer Properties of 4-Phenylthiazole-Based Ru(II) and Os(II) Metallacycles Featuring 1-Methylimidazole as N-Donor Functionality” (Bioinorganic Chemistry and Applications, 2025).

Legend:
SW480 cells = assay: DCFH-DA assay, cellular ROS levels; assay type: cell-based, human; details: 2 h, concentration dependent
Protocol: For this approach, SW480 cells were subjected to the 2′,7′-dichlorofluorescin-diacetate (DCFH-DA) assay.
SW480 colon adenocarcinoma cells were trypsinized for 5 min in a humidified incubator at 37°C and under a 5% CO2 atmosphere. Supplemented MEM was added to stop trypsinization, and cells were centrifuged for 3 min at 1200 rpm (Heraeus Megafuge 1.0R). After cell counting, SW480 cells were seeded in 100-μL aliquots in densities of 2.5 × 10^4 cells/well into 96-well clear flat-bottom microplates (CytoOne, TC-treated, from Starlab). After incubation for 24 h, cells were washed with 200 μL of Hanks' balanced salt solution (HBSS; Sigma-Aldrich; supplemented with 1% heat-inactivated FCS). […] After washing cells with 200 μL of supplemented HBSS, serially diluted test compounds in phenol-red-free Opti-MEM (Gibco), supplemented with 1% heat-inactivated FCS, were added in 200-μl triplicates and tert-butyl hydroperoxide (TBHP) was applied as positive control. […] Blank-corrected values were calculated relative to negative controls (treated with drug-free supplemented Opti-MEM) from three independent experiments.

[1] = tested on: HCT116 colorectal cancer cell line (2D); assay: Resazurin assay, HCT116 2D (monolayer) culture
CT26 tumor = assay: Anticancer activity in CT26 tumor-bearing BALB/c mice; assay type: in vivo; details: i.p. 50 mg/kg, 5 times a week for two weeks, did not reach statistical significance
Protocol: Figure 5 Anticancer activity of 1c and 3c in vivo. CT26-bearing BALB/c mice were treated i.p. with 50 mg/kg for five consecutive days for 2 weeks. (a) Impact on tumor growth; data are presented as mean ± SEM. […] On Day 15, most of the animals were sacrificed and tissues collected for further analyses. Of each group, 4 animals were kept to assess the impact on overall survival, which is shown in (b). Statistical significance was tested by log-rank test and Mantel–Cox post-test, ^∗p < 0.01. (c) The ruthenium levels measured by ICP-MS in the collected tissue samples of the mice, which were sacrificed 2 h after the last treatment.
(§1) CT26 cells (5 × 10^5 cells in 50-μL serum-free medium) were injected subcutaneously (s.c.) into the right flank of 8–16-week-old BALB/c mice (Envigo Laboratories, San Pietro Al Natisone, Italy). After 3 days, therapy treatment started on five consecutive days for 2 weeks. Animals were treated i.p. with 50 mg/kg 1c and 3c (all dissolved in 10% DMSO in 0.9% NaCl, 12 mice per group). The solvent control animals received 10% DMSO in 0.9% NaCl. Every day, the animals were monitored for the overall health conditions and tumor size was measured regularly by caliper measurement. Tumor volumes (mm^3) were calculated using following formula: length × width^2/2. In the overall survival arm of the experiment, mice were sacrificed by cervical dislocation in the case of a tumor length > 20 mm or tumor ulceration or a decreased body weight of ∼20%. Tumor growth and possible side effects of the treatment were evaluated by daily recording the tumor size by caliper measurement and parameters of the animal's overall health conditions. In the tissue sampling arm at the experiment, the mice were sacrificed by cervical dislocation 2 h after the last treatment. Tumors as well as organs were collected. Additionally, blood was drawn and incubated for 25 min to allow blood clotting. To isolate serum and blood pellets, the blood was centrifuged for 10 min at 17,900 g at room temperature. The supernatant characterized as serum was transferred to a new tube and centrifuged again to remove residual red blood cells. All collected samples were stored at −20°C and further processed for platinum measurements via ICP-MS.

[2] = tested on: A549 lung adenocarcinoma cells; parameters: method as in PMID 38426897; details: MTT assay, exposure time 96 h; ref [5]; read-out: 50% inhibitory concentration A549 (chlorido complexes, reference) (converted); cited from earlier work
[3] = tested on: SW480 colon adenocarcinoma cells; parameters: method as in PMID 38426897; details: MTT assay, exposure time 96 h; ref [5]; read-out: 50% inhibitory concentration SW480 (chlorido complexes, reference) (converted); cited from earlier work
Balb/c mice = assay: Toxicity experiments in Balb/c mice (MTD); details: mice, i.p.
Protocol: Finally, we were interested in the anticancer activity of selected complexes of our panel in an in vivo mouse setting. Before injecting the compounds in tumor-bearing mice, toxicity experiments were performed. […] On the last day of therapy, most animals were sacrificed and tissues as well as tumors collected. Only four mice (per group) were kept to get information on the impact of the drugs on the overall survival.

[4] = Ruthenium levels in tissues by ICP-MS; assay type: in vivo; details: CT26-bearing mice, 2 h after last injection
Protocol: Tumor-specific organs and blood serum, harvested from the other animals 2 h after the last injection (Figure 5(c)), were measured for the average ruthenium content by inductively coupled plasma mass spectrometry (ICP-MS) of tissue homogenates.
as §1, with “In the overall survival arm of the experiment, mice were sacrificed by cervical dislocation in the case of a tumor length > 20 mm or tumor ulceration or a decreased body weight of ∼20%.” left out
The ruthenium concentration was determined by ICP-MS analysis. Ruthenium and rhenium standards were derived from LabKings (LabKings B.V., The Netherlands). The total ruthenium content was determined with a quadrupole-based ICP-MS instrument Agilent 7800 (Agilent Technologies, Tokyo, Japan) equipped with the Agilent SPS 4 autosampler (Agilent Technologies, Tokyo, Japan) and a MicroMist nebulizer at a sample uptake rate of approximately 0.2 mL·min^−1. […] Argon was used as plasma gas (15 L·min^−1) and as carrier gas (∼1.08 L·min^−1). The integration time was set to 0.1 s, and measurements were performed in 6 replicates with 100 sweeps. Rhenium served as internal standard for ruthenium.

[5] = tested on: G4 forming sequences (h-Telo, bcl2, hTERT, Kit1, Kit2) and dsDNA; parameters: method as in PMID 38426897; details: recent work; ref [5]; cited from earlier work
[6] = tested on: HCT116 multicellular tumor spheroids (3D); assay: Resazurin assay, HCT116 3D multicellular tumor spheroids
Protocol: Both models were investigated by the fluorimetric resazurin assay after 96-h exposure.
HCT116 colorectal carcinoma cells (RRID:CVCL_0291 from ATCC) were cultivated in McCoy's 5A medium, supplemented with 10% heat-inactivated fetal bovine serum and 4 mM L-glutamine.
For 2D experiments, HCT116 cells were harvested from culture flasks by trypsinization, seeded in 100-μL aliquots into 96-well microculture plates (CytoOne, TC-treated, from Starlab) in densities of 2 × 10^3 cells per well, and incubated for 24 h prior to exposure to the test compounds. […] Stock solutions of test compounds were prepared in DMF, which were then diluted in McCoy's 5A-supplemented medium (not to exceed a final content of 0.5% v/v of organic solvent in the test plates), and serial dilutions were added in aliquots of 100 μL per well. […] After incubation for 4 h, fluorescence was measured with a microplate reader (Bio-Tek, SynergyHT) at a wavelength of 530 nm, additionally using a reference wavelength of 620 nm.

[7] = tested on: CH1/PA-1 ovarian teratocarcinoma cells; parameters: method as in PMID 38426897; details: MTT assay, exposure time 96 h; ref [5]; read-out: 50% inhibitory concentration CH1 (chlorido complexes, reference) (converted); cited from earlier work

For CS(=O)(=O)c1ccc(-c2cscn2)[c]([Ru][Cl])c1.Cc1ccc(C(C)C)cc1 [Compound 1c], the “Effect on intracellular ROS levels” value (SW480 cells) was “constantly decrease ROS levels with increasing concentrations”, the “Increase of cytotoxic activity by mesylation (1c vs 1a), 2D” value [1] was 2.8 times and the IC50 ([1]; read-out: IC50 2D, resazurin assay, 96 h exposure) was 6.5 ± 1.3 µM. The “Impact on tumor volume (anticancer activity)” value (CT26 tumor) was “slight anticancer activity”, the IC50 [2] was 12 µM and the IC50 [3] was 5.1 µM. The Tolerated dose (Balb/c mice) was “at least 50 mg/kg”, the “Kidney ruthenium levels, fold higher compared to 3c” value [4] was 10 fold and the “Ruthenium level in liver” value [4] was about 20 mg/kg. For the same molecule, the “Ruthenium level in tumor” value [4] was about 1 mg/kg, the “Stabilization of DNA G-quadruplex structures” value [5] was “stabilize DNA G-quadruplex (G4) structures” and the “Enhancement of cytotoxic activity by mesylation (1c vs 1a), 3D” value ([6]; HCT116 3D) was 3.5 fold. The IC50 ([6]; read-out: IC50 3D, HCT116 3D spheroids, resazurin assay, 96 h exposure) was 8.9 ± 2.1 µM and the IC50 [7] was 1.6 µM.
